Experimental data as given in patent US20120157448A1, “COMPOUNDS FOR TREATING NEURODEGENERATIVE DISEASES” (priority 2010, published 2012).

molecular target: T1, BACE-1 (Homo sapiens, UniProt P56817); assay: Cellular BACE-1 inhibition assay (in vitro cellular Amyloidβ 1-40 production, HTRF immunoassay); assay type: cell-based; details: not given
T1 construct: endogenous in cells; host or cells: HEK-293 cells stably transfected with wild type APP695
Experimental: Materials and Methods: HEK-293 cells stably transfected with a DNA construct containing the coding sequence for the wild type APP695 sequence were grown in Dulbecco's Modified Eagle Medium (“DMEM”) supplemented with 10% fetal bovine serum, penicillin/streptomycin and 150 μg/mL G418. Cells were plated in 96-well plates at 35,000 cells/well and allowed to attach for 8-12 hours. Media was changed to DMEM supplemented with 10% fetal bovine serum, penicillin/streptomycin 15 minutes prior to compound addition. Diluted compounds were then added at a final concentration of 0.5% DMSO. After 48 hours, 4 μL of media from each well was added to a corresponding well of a 384 well plate (Perkin Elmer Cat#6008280) containing the HTRF reagents. HTRF reagents were obtained from the CisBio Amyloid β 1-40 peptide assay kit (Cat#62B40PEC) and were prepared as follows anti-peptide β (1-40)-Cryptate and anti-peptide […] were stored in 2 plate aliquots at −80° C. Diluent and Reconstitution buffer were stored at 4° C. Aliquots of the two antibodies were diluted 1:100 with Reconstitution buffer, and this mixture was diluted 1:2 with Diluent. 12 μL of the reagent mixture was added to the required wells of the 384 well assay plate. The assay plate was incubated at 4° C. for 17 hours and then analyzed for fluorescence at 665 and 620 nm. The following compounds were tested in the above assay. Some compounds were tested more than once, and the average is reported below.

T1 sequence (P56817 46-501): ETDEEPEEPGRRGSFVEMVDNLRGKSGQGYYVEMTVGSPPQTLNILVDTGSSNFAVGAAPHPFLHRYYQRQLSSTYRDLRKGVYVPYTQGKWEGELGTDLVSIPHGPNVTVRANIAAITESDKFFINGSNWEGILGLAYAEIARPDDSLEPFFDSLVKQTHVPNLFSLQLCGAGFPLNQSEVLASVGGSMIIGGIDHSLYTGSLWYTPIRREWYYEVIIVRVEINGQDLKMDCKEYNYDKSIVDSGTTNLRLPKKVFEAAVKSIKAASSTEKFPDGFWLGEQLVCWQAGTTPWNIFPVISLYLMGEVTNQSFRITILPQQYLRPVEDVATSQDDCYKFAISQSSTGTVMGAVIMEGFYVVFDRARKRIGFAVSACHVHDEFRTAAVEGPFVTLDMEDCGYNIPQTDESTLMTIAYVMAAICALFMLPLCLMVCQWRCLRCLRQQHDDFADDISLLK

| SMILES | IC50 [µM] |
| --- | --- |
| C[C@@]12CCOC[C@H]1C1(COC(N)=N1)c1cc(-c3cccnc3F)ccc1C2 (relative stereo) [Example 118, (4aR*,10aR*)-8-(2-fluoropyridin-3-yl)-4a-methyl-1,3,4,4a,5,10a-hexahydro-5′H-spiro[benzo[g]isochromene-10,4′-oxazol]-2′-amine] | 0.219 |

same assay, conditions: inhibition of Amyloidβ 1-40 production; HEK-293 cells stably transfected with wild type APP695; 48 hours incubation; average where tested more than once; read-out: IC50

| IC50 [µM] | SMILES |
| --- | --- |
| 0.133 | NC1=NC2(CO1)c1cc(-c3cccnc3F)ccc1OC1CCN(C(=O)OCc3ccccc3)C[C@@H]12 (mixture of isomers) [Example 5, rac-trans-(4a,10a)-benzyl 2′-amino-8-(2-fluoropyridin-3-yl)-1,4,4a,10a-tetrahydro-5′H-spiro[chromeno[3,2-c]pyridine-10,4′-oxazole]-2(3H)-carboxylate] |
| 0.0434 | NC1=NC2(CO1)c1cc(-c3cncc(Cl)c3)ccc1OC1CCCCC12 (racemic) [Example 9, 7′-(5-chloropyridin-3-yl)-1′,2′,3′,4′,4a′,9a′-hexahydro-5H-spiro[oxazole-4,9′-xanthen]-2-amine] |
| 0.147 | NC1=NC2(CO1)c1cc(NC(=O)c3ccc(Br)cn3)ccc1OC1CCCCC12 (racemic) [Example 17, N-(2-amino-1′,2′,3′,4′,4a′,9a′-hexahydro-5H-spiro[oxazole-4,9′-xanthene]-7′-yl)-5-bromopicolinamide] |
| 1.33 | NC1=NC2(CO1)c1cc(-c3cccnc3F)ccc1OC1CCNC[C@@H]12 (mixture of isomers) [Example 41, rac-trans-(4a,10a)-8-(2-fluoropyridin-3-yl)-1,2,3,4,4a,10a-hexahydro-5′H-spiro[chromeno[3,2-c]pyridine-10,4′-oxazol]-2′-amine] |
| 0.304 | NC1=NC2(CO1)c1cc(-c3cccnc3F)ccc1OC1CCN(CC(F)(F)F)C[C@@H]12 (mixture of isomers) [Example 44, rac-trans-(4a,10a)-8-(2-fluoropyridin-3-yl)-2-(2,2,2-trifluoroethyl)-1,2,3,4,4a,10a-hexahydro-5′H-spiro[chromeno[3,2-c]pyridine-10,4′-oxazol]-2′-amine] |
| 0.0866 | NC1=NC2(CS1)c1cc(-c3cncnc3)ccc1O[C@H]1CC(O)CC[C@@H]12 (relative stereo) [Example 26, (4a′S*,9a′R*)-2-amino-7′-(pyrimidin-5-yl)-1′,2′,3′,4′,4a′,9a′-hexahydro-5H-spiro[thiazole-4,9′-xanthen]-3′-ol] |
| 0.0078 | NC1=N[C@@]2(CO1)c1cc(-c3cncc(Cl)c3)ccc1OC1CC[C@H](OCC3CC3)C[C@@H]12 (relative stereo) [Example 28, (4R*,4a′S*,9a′R*)-7′-(5-chloropyridin-3-yl)-2′-(cyclopropylmethoxy)-1′,2′,3′,4′,4a′,9a′-hexahydro-5H-spiro[oxazole-4,9′-xanthen]-2-amine] |
| 0.0089 | NC1=N[C@]2(CO1)c1cc(-c3cncc(Cl)c3)ccc1OC1CC[C@H](OCC3CC3)C[C@@H]12 (relative stereo) [Example 29, (4S*,4a′S*,9a′R*)-7′-(5-chloropyridin-3-yl)-2′-(cyclopropylmethoxy)-1′,2′,3′,4′,4a′,9a′-hexahydro-5H-spiro[oxazole-4,9′-xanthen]-2-amine] |
| 0.154 | C[C@]12CCCO[C@@H]1[C@]1(COC(N)=N1)c1cc(-c3cncc(F)c3)ccc1O2 (relative stereo) [Example 88, (4R*,4a′S*,10a′R*)-8′-(5-fluoropyridin-3-yl)-4a′-methyl-3′,4′,4a′,10a′-tetrahydro-2′H,5H-spiro[oxazole-4,10′-pyrano[3,2-b]chromen]-2-amine] |
| 1.34 | C[C@H]1OCCC2Oc3ccc(-c4cncc(Cl)c4)cc3[C@@]3(COC(N)=N3)[C@@H]21 (relative stereo) [Example 90, (1′R*4R*,4a′R*,10a′R*)-8′-(5-chloropyridin-3-yl)-1′-methyl-3′,4′,4a′,10a′-tetrahydro-1′H,5H-spiro[oxazole-4,10′-pyrano[4,3-b]chromen]-2-amine] |
| 0.457 | NC1=N[C@@]2(CO1)c1cc(-c3cccnc3F)ccc1O[C@H]1CCN(C(=O)CC3CC3)C[C@@H]12 (relative stereo) [Example 218, 1-((4aS*,4′R*,10aR*)-2′-amino-8-(2-fluoropyridin-3-yl)-1,4,4a,10a-tetrahydro-5′H-spiro[chromeno[3,2-c]pyridine-10,4′-oxazol]-2(3H)-yl)-2-cyclopropylethanone] |
| 0.0585 | NC1=NC2(CO1)c1cc(-c3cncc(Cl)c3)ccc1O[C@@H]1CCCC[C@H]12 (single isomer, unassigned) [Example 10, 7′-(5-chloropyridin-3-yl)-1′,2′,3′,4′,4a′,9a′-hexahydro-5H-spiro[oxazole-4,9′-xanthen]-2-amine] |
| 0.0696 | NC1=NC2(CO1)c1cc(-c3cncnc3)ccc1OC1CCCCC12 (single isomer, unassigned) [Example 11, 7′-(pyrimidin-5-yl)-1′,2′,3′,4′,4a′,9a′-hexahydro-5H-spiro[oxazole-4,9′-xanthen]-2-amine] |
| 0.0607 | NC1=NC2(CO1)c1cc(-c3cncnc3)ccc1OC1CCCCC12 (single isomer, unassigned) [Example 12, 7′-(pyrimidin-5-yl)-1′,2′,3′,4′,4a′,9a′-hexahydro-5H-spiro[oxazole-4,9′-xanthen]-2-amine] |
| 0.0735 | Cc1nc(C(=O)Nc2ccc3c(c2)C2(COC(N)=N2)C2CCCCC2O3)co1 (single isomer, unassigned) [Example 14, N-(2-amino-1′,2′,3′,4′,4a′,9a′-hexahydro-5H-spiro[oxazole-4,9′-xanthene]-7′-yl)-2-methyloxazole-4-carboxamide] |
| 0.0587 | Cc1nc(C(=O)Nc2ccc3c(c2)C2(COC(N)=N2)[C@@H]2CCCCC2O3)co1 (single isomer, unassigned) [Example 15, N-(2-amino-1′,2′,3′,4′,4a′,9a′-hexahydro-5H-spiro[oxazole-4,9′-xanthene]-7′-yl)-2-methyloxazole-4-carboxamide] |
| 0.171 | NC1=NC2(CO1)c1cc(NC(=O)c3ccc(Cl)cn3)ccc1OC1CCCCC12 (single isomer, unassigned) [Example 16, N-(2-amino-1′,2′,3′,4′,4a′,9a′-hexahydro-5H-spiro[oxazole-4,9′-xanthene]-7′-yl)-5-chloropicolinamide] |
| 0.0241 | NC1=NC2(CS1)c1cc(-c3cncc(Cl)c3)ccc1OC1CC(O)CC[C@@H]12 (single isomer, unassigned) [Example 25, (4a′S*,9aR*)-2-amino-7′-(5-chloropyridin-3-yl)-1′,2′,3′,4′,4a′,9a′-hexahydro-5H-spiro[thiazole-4,9′-xanthen]-3′-ol] |
| 0.041 | CC(C)CS(=O)(=O)N1CC[C@@H]2Oc3ccc(-c4cccnc4F)cc3[C@]3(COC(N)=N3)[C@H]2C1 (single isomer, unassigned) [Example 120] |
| 0.0473 | NC1=NC2(CO1)c1cc(-c3cccnc3F)ccc1OC1CCC(O)C[C@@H]12 (stereo in doubt) [Example 31, (4a′S*,9a′R*)-2-amino-7′-(2-fluoropyridin-3-yl)-1′,2′,3′,4′,4a′,9a′-hexahydro-5H-spiro[oxazole-4,9′-xanthen]-2′-ol] |
| 0.118 | NC1=NC2(CO1)c1cc(-c3cncnc3)ccc1OC1CCC(O)C[C@@H]12 (stereo in doubt) [Example 32, (4a′S*,9a′R*)-2-amino-7′-(pyrimidin-5-yl)-1′,2′,3′,4′,4a′,9a′-hexahydro-5H-spiro[oxazole-4,9′-xanthen]-2′-ol] |
